Columns and labels:
[1] = system: elastin; test: Immunohistochemical analysis of elastin in scar biopsies; assay type: in vivo, human
Procedure: A double-blind randomized placebo-controlled trial was conducted using a temporal punch-biopsy model. The punch biopsy and topical application methodology used in the study is illustrated in FIG. 1, namely showing pre-injury pre-emptive priming (7-days), pre-injury pre-emptive priming (3-days), day of injury (immediate application on day 0), post-injury (delayed 2 weeks post injury) including biopsy time points and time of topical applications. Each group applied both placebo and topical formulations twice daily for the duration of the study until week 8, with only the starting time point differing between groups Participants were split into 4 groups (n=10 in each group) in order to compare different modes (timings) of commencement of the topical application: • Group-1: Pre-emptive Priming (7-days): pre-injury • Group-2: Pre-emptive Priming (3-days): pre-injury • Group-3: Immediate (0-day): day-of-injury • Group-4: Delayed (14-days): post-injury Clinical quantitative devices were used to objectively monitor cutaneous healing at weekly intervals and punch biopsies were performed on day 0 (uninjured skin) and at weeks 4 and 8 for protein and gene expression analyses. In the trial, topical EGCG and a placebo topical were applied twice daily for the duration of the trial until week 8 with only the starting time points differing between groups. Clinical and experimental analysis involved use of non-invasive devices as well as protein and gene studies. Excisional skin biopsies in upper arms were evaluated weekly with multiple quantitative devices over an 8-week period. Immunohistochemical analyses, mRNA sequencing and QRT-PCR were performed on tissue biopsies. […] There was also a significant increase at week-4 in group-1 only by 12% with EGCG (P=0.01). Between group analysis indicated a significant difference at week-8 (p=0.001). The greatest differences were in group-1 compared to groups-3 by 20% (p=0.008) and group-4 by 20% (p=0.003) and in group-2 compared to group-4 by 17% (p=0.009).

[2] = system: human skin scarring model; test: Skin thickness by high frequency ultrasound (HFUS); assay type: in vivo; settings: significant in group-1 week 8 (p=0.002); group-2 weeks 6, 8; group-3 weeks 5-8; group-4 weeks 3, 5-8 (p<0.01)
Procedure: A double-blind randomized placebo-controlled trial was conducted using a temporal punch-biopsy model. The punch biopsy and topical application methodology used in the study is illustrated in FIG. 1, namely showing pre-injury pre-emptive priming (7-days), pre-injury pre-emptive priming (3-days), day of injury (immediate application on day 0), post-injury (delayed 2 weeks post injury) including biopsy time points and time of topical applications. Each group applied both placebo and topical formulations twice daily for the duration of the study until week 8, with only the starting time point differing between groups Participants were split into 4 groups (n=10 in each group) in order to compare different modes (timings) of commencement of the topical application: • Group-1: Pre-emptive Priming (7-days): pre-injury • Group-2: Pre-emptive Priming (3-days): pre-injury • Group-3: Immediate (0-day): day-of-injury • Group-4: Delayed (14-days): post-injury Clinical quantitative devices were used to objectively monitor cutaneous healing at weekly intervals and punch biopsies were performed on day 0 (uninjured skin) and at weeks 4 and 8 for protein and gene expression analyses. […] Structural changes in the scars were assessed clinically by high frequency ultrasound (HFUS) and elasticity probe, and elastin and collagen markers. […]

[3] = system: human skin scarring model; test: Blood flow by full-field laser perfusion imaging (FLPI); assay type: in vivo
Procedure: (§1) A double-blind randomized placebo-controlled trial was conducted using a temporal punch-biopsy model. The punch biopsy and topical application methodology used in the study is illustrated in FIG. 1, namely showing pre-injury pre-emptive priming (7-days), pre-injury pre-emptive priming (3-days), day of injury (immediate application on day 0), post-injury (delayed 2 weeks post injury) including biopsy time points and time of topical applications. Each group applied both placebo and topical formulations twice daily for the duration of the study until week 8, with only the starting time point differing between groups Participants were split into 4 groups (n=10 in each group) in order to compare different modes (timings) of commencement of the topical application: • Group-1: Pre-emptive Priming (7-days): pre-injury • Group-2: Pre-emptive Priming (3-days): pre-injury • Group-3: Immediate (0-day): day-of-injury • Group-4: Delayed (14-days): post-injury Clinical quantitative devices were used to objectively monitor cutaneous healing at weekly intervals and punch biopsies were performed on day 0 (uninjured skin) and at weeks 4 and 8 for protein and gene expression analyses. In the trial, topical EGCG and a placebo topical were applied twice daily for the duration of the trial until week 8 with only the starting time points differing between groups. […]

[4] = system: human skin scarring model; test: Viscoelasticity of scars by clinical elastin probe; assay type: in vivo
Procedure: as §1

O=C(OC1Cc2c(O)cc(O)cc2OC1c1cc(O)c(O)c(O)c1)c1cc(O)c(O)c(O)c1 (single isomer, unassigned; (-)) [EGCG, (-)-epigallocatechin-3-gallate]
Elastin levels in primed uninjured skin ([1]; primed uninjured skin prior to injury): increases elastin levels
Elastin (immunohistochemical) increase with EGCG ([1]; week 4, group-1 only, P=0.01): 12%
Elastin (immunohistochemical), EGCG-treated samples compared to placebo ([1]; week 8, all groups, p<0.01): up-regulated
Elastin: difference of group-2 compared to group-4 ([1]; week 8, 3-day priming vs delayed, p=0.009): 17%
Elastin: difference of group-1 compared to group-4 ([1]; week 8, 7-day priming vs delayed, p=0.003): 20%
Elastin: difference of group-1 compared to group-3 ([1]; week 8, 7-day priming vs immediate, p=0.008): 20%
HFUS skin thickness, EGCG scars compared to placebo scars [2]: lower
FLPI blood flow, EGCG arms compared to placebo arms ([3]; group-1 weeks 1 and 8, group-2 weeks 3, 7, 8, group-3 weeks 1-3, 6-8, group-4 weeks 3-8, p<0.01): significant reduction
FLPI blood flow, between group comparison, groups-1 and 3 vs group-4 ([3]; week 1, p<0.001, p=0.002): reduced blood flow more than group-4
Elasticity (viscoelasticity), EGCG-treated arms compared to placebo-treated arms ([4]; group-1 weeks 1, 7, 8, group-2 week 8, group-3 week 8, group-4 week 7): significantly increased
Elasticity, between group comparison, group-1 vs group-4 ([4]; week 8, p=0.029): significantly increased elastin more than group-4
